Measurements as given in paper PMC10139140, “Synthesis of Novel 2-(Cyclopentylamino)thiazol-4(5H)-one Derivatives with Potential Anticancer, Antioxidant, and 11β-HSD Inhibitory Activities” (International Journal of Molecular Sciences, 2023).

Experiments:
[1] = test system: human breast carcinoma (MDA-MB-231); assay: MTS metabolic activity assay, MDA-MB-231 cells; assay type: cell-based; conditions: 72 h
Method in brief: (§1)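 Dose range applied for 72 h; MTS read-out at 590 and 620 nm, % of control.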

[2] = target: T1, 11β-HSD2 (Homo sapiens, UniProt P80365); assay: Inhibition of 11β-HSD2 (cortisol to cortisone, human microsomes, cortisol ELISA); assay type: biochemical; conditions: 2.5 h, 37 °C
T1 construct: Human liver microsomes were used as a source of 11β-HSD2 enzyme; tissue XenoTech Lot No. 1710160; host or cells: human kidney microsomes, mixed gender (method text says human liver microsomes)
T1 sequence (P80365 1-405): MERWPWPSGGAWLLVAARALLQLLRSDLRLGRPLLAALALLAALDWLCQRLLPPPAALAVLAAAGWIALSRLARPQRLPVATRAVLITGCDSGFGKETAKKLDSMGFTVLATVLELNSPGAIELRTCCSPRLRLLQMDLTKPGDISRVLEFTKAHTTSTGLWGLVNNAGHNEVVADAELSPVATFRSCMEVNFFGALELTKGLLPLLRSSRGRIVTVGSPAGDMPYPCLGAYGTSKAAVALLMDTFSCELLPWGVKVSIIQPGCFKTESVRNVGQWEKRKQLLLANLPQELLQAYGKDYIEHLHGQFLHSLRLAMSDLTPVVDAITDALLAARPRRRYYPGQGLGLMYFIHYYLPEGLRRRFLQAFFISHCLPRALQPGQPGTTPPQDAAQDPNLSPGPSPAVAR
Description: The resulting solution with a final volume of 100 µL was incubated for 2.5 h at 37 °C. […] The level of unreacted cortisol was measured by a commercially available ELISA kit.

[3] = test system: skin melanoma (SK-MEL-30); assay: MTS metabolic activity assay, SK-MEL-30 cells; assay type: cell-based; conditions: Homo sapiens, 72 h, read-out: Cell metabolic activity (MTS), % of untreated control
Method in brief: as §1

[4] = test system: human colon carcinoma (Caco-2); assay: MTS metabolic activity assay, Caco-2 cells; assay type: cell-based; conditions: 72 h
Method in brief: as §1

[5] = test system: glioma (U-118 MG); assay: MTS metabolic activity assay, U-118 MG cells; assay type: cell-based; conditions: 72 h
Method in brief: as §1

[6] = test system: BJ cells; assay: MTS metabolic activity assay, BJ cells; assay type: cell-based; conditions: Homo sapiens, 72 h, read-out: Cell metabolic activity (MTS), % of untreated control
Method in brief: as §1

[7] = test system: human pancreatic carcinoma (PANC-1); assay: MTS metabolic activity assay, PANC-1 cells; assay type: cell-based
Method in brief: as §1

[8] = target: T2, 11β-HSD1 (Homo sapiens, UniProt P28845); assay: Inhibition of 11β-HSD1 (cortisone to cortisol, human liver microsomes, cortisol ELISA); assay type: biochemical
T2 construct: Human liver microsomes were used as a source of 11β-HSD1 enzyme; tissue XenoTech Lot No. 1410013; host or cells: pooled human liver microsomes, mixed gender
Method in brief: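 Human liver microsomal conversion of cortisone to cortisol, incubated 2.5 h at 37 °C and stopped with 18β-glycyrrhetinic acid. Cortisol was quantified by ELISA against inhibitor-free controls.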

T2 sequence (P28845 whole entry): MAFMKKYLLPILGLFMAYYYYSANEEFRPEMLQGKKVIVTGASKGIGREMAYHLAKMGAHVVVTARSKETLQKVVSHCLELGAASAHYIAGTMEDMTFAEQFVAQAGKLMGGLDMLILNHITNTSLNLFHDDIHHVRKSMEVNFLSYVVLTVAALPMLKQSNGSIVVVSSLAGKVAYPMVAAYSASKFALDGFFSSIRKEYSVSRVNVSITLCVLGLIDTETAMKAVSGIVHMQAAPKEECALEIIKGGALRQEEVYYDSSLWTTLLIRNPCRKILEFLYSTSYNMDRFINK

inhibition at 10 µM [2]: < 43%
IC50 [8]: 70 ± 5 nM
% of 11β-HSD1 Inhibition 10 μM ([8]; 10 µM, 2.5 h, 37 °C): 90.49 ± 1.31%
inhibition at 10 µM ([8]; 10 µM, 2.5 h, 37 °C): 90%
SMILES: O=C1N=C(NC2CCCC2)SC12CCCCC2 [Compound 3h, 2-(cyclopentylamino)-1-thia-3-azaspiro[4.5]dec-2-en-4-one]
viability at 10 µM ([1]; Homo sapiens, MDA-MB-231, 10 µM, read-out: Cell metabolic activity (MTS), % of untreated control): 91.6%
viability at 20 µM ([1]; Homo sapiens, MDA-MB-231, 20 µM, read-out: Cell metabolic activity (MTS), % of untreated control): 92.7%
viability at 50 µM ([1]; Homo sapiens, MDA-MB-231, 50 µM, read-out: Cell metabolic activity (MTS), % of untreated control): 92.1%
viability at 100 µM ([1]; Homo sapiens, MDA-MB-231, 100 µM, read-out: Cell metabolic activity (MTS), % of untreated control): 93.5%
viability at 200 µM ([1]; Homo sapiens, MDA-MB-231, 200 µM, read-out: Cell metabolic activity (MTS), % of untreated control): 77.1%
viability at 300 µM ([1]; Homo sapiens, MDA-MB-231, 300 µM, read-out: Cell metabolic activity (MTS), % of untreated control): 64.6%
viability at 500 µM ([1]; Homo sapiens, MDA-MB-231, 500 µM, read-out: Cell metabolic activity (MTS), % of untreated control): 45.6%
cell viability, decreases to ([1]; MDA-MB-231, higher concentrations, range given for the most effective substances together): 20–65%
viability at 10 µM ([3]; SK-MEL-30, 10 µM): 96.1%
viability at 20 µM ([3]; SK-MEL-30, 20 µM): 100%
viability at 50 µM ([3]; SK-MEL-30, 50 µM): 102%
viability at 100 µM ([3]; SK-MEL-30, 100 µM): 105%
viability at 200 µM ([3]; SK-MEL-30, 200 µM): 109%
viability at 300 µM ([3]; SK-MEL-30, 300 µM): 106%
viability at 500 µM ([3]; SK-MEL-30, 500 µM): 80.8%
cell viability, decreases to ([4]; Caco-2, higher concentrations, range given for the most effective substances together): 20–65%
viability at 10 µM ([4]; Homo sapiens, Caco-2, 10 µM, read-out: Cell metabolic activity (MTS), % of untreated control): 96.3%
viability at 20 µM ([4]; Homo sapiens, Caco-2, 20 µM, read-out: Cell metabolic activity (MTS), % of untreated control): 94.2%
viability at 50 µM ([4]; Homo sapiens, Caco-2, 50 µM, read-out: Cell metabolic activity (MTS), % of untreated control): 99.9%
viability at 100 µM ([4]; Homo sapiens, Caco-2, 100 µM, read-out: Cell metabolic activity (MTS), % of untreated control): 96.2%
viability at 200 µM ([4]; Homo sapiens, Caco-2, 200 µM, read-out: Cell metabolic activity (MTS), % of untreated control): 95.6%
viability at 300 µM ([4]; Homo sapiens, Caco-2, 300 µM, read-out: Cell metabolic activity (MTS), % of untreated control): 82.6%
viability at 500 µM ([4]; Homo sapiens, Caco-2, 500 µM, read-out: Cell metabolic activity (MTS), % of untreated control): 65.5%
viability at 10 µM ([5]; Homo sapiens, U-118-MG, U118-MG, 10 µM, read-out: Cell metabolic activity (MTS), % of untreated control): 111%
viability at 20 µM ([5]; Homo sapiens, U-118-MG, U118-MG, 20 µM, read-out: Cell metabolic activity (MTS), % of untreated control): 111%
viability at 50 µM ([5]; Homo sapiens, U-118-MG, U118-MG, 50 µM, read-out: Cell metabolic activity (MTS), % of untreated control): 116%
viability at 100 µM ([5]; Homo sapiens, U-118-MG, U118-MG, 100 µM, read-out: Cell metabolic activity (MTS), % of untreated control): 116%
viability at 200 µM ([5]; Homo sapiens, U-118-MG, U118-MG, 200 µM, read-out: Cell metabolic activity (MTS), % of untreated control): 121%
viability at 300 µM ([5]; Homo sapiens, U-118-MG, U118-MG, 300 µM, read-out: Cell metabolic activity (MTS), % of untreated control): 121%
viability at 500 µM ([5]; Homo sapiens, U-118-MG, U118-MG, 500 µM, read-out: Cell metabolic activity (MTS), % of untreated control): 99.9%
highest increase in proliferation (cell metabolic activity) ([5]; U-118 MG, range given for the named substances together): 115 to 144%
viability at 10 µM ([6]; 10 µM): 108%
viability at 20 µM ([6]; 20 µM): 106%
viability at 50 µM ([6]; 50 µM): 111%
viability at 100 µM ([6]; 100 µM): 118%
viability at 200 µM ([6]; 200 µM): 122%
viability at 300 µM ([6]; 300 µM): 115%
viability at 500 µM ([6]; 500 µM): 79%
viability at 10 µM ([7]; Homo sapiens, PANC-1, 10 µM, 72 h, read-out: Cell metabolic activity (MTS), % of untreated control): 102%
viability at 20 µM ([7]; Homo sapiens, PANC-1, 20 µM, 72 h, read-out: Cell metabolic activity (MTS), % of untreated control): 96%
viability at 50 µM ([7]; Homo sapiens, PANC-1, 50 µM, 72 h, read-out: Cell metabolic activity (MTS), % of untreated control): 105%
viability at 100 µM ([7]; Homo sapiens, PANC-1, 100 µM, 72 h, read-out: Cell metabolic activity (MTS), % of untreated control): 109%
viability at 200 µM ([7]; Homo sapiens, PANC-1, 200 µM, 72 h, read-out: Cell metabolic activity (MTS), % of untreated control): 117%
viability at 300 µM ([7]; Homo sapiens, PANC-1, 300 µM, 72 h, read-out: Cell metabolic activity (MTS), % of untreated control): 127%
viability at 500 µM ([7]; Homo sapiens, PANC-1, 500 µM, 72 h, read-out: Cell metabolic activity (MTS), % of untreated control): 98.4%
highest increase in proliferation (cell metabolic activity) ([7]; PANC-1, 72 h, range given for the named substances together): 115 to 144%
